Test results: publication PMC9452538, “The antimicrobial peptide LI14 combats multidrug-resistant bacterial infections” (Communications Biology, 2022)
Converted amounts (≈) assume the structure as drawn. Bridge positions count the residues as written; N and C are the ends. Ends that are not written are not given here. Peptide text beside a SMILES is read from it.

Assays:
MRSA T144 [1] = assay: Neutropenic mouse thigh infection model; type: in vivo, CD-1 mice; settings: AMP 20 mg/kg i.p., 48 h
Experimental: Female CD-1 mice (n = 6 biologically independent animals per group) were first given cyclophosphamide (two consecutive injections of 150 and 100 mg kg^−1 at 4 and 1 day before infection) to construct neutropenia models. The mice’s right thighs were then injected with 100 μL MRSA T144 or E. coli B2 suspensions (10^5 CFUs per mouse). Post-infection of 1 h, 100 μL LI14 peptide (10 or 20 mg/kg), ampicillin/rifampicin (20 mg/kg) or a combination of LI14 with ampicillin/ rifampicin (10 + 20 mg/kg) were given by intraperitoneal injection. All mice were euthanized 48 h after drug administration, and right thigh muscle tissue was removed aseptically, homogenized, serially diluted, and plated on MHA to qualify bacterial loads after overnight incubation at 37 °C.

MRSA T144 [2] = assay: Checkerboard assay with LI14; type: cell-based, Staphylococcus aureus; settings: for FIC index: antibiotic in combination with LI14, checkerboard; for MICa of antibiotic: in the absence of LI14; for MICb of antibiotic / Potentiation: in the presence of ¼ MIC of LI14
Experimental: (§1) Through checkerboard assay using two-fold serially diluted drugs (8 × 8 matrix), we evaluated the synergistic effects of LI14 with different mechanisms of antibiotics. The absorbance of cultures at 600 nm was determined by a Microplate reader after 18 h of incubation with (1.5 × 10^6 CFUs/mL) bacterial suspension. The FIC index (FICI) was calculated by performing two biological replicates for each combination. The formula is as follows: FIC index = FICIa + FICIb = MICab/MICa + MICba/Mb. An FIC index of ≤0.5 indicates synergy.
(§2) a/bMICs of antibiotics in the absence or presence of ¼ MIC of LI14.
(§3) cDegree of antibiotics potentiation in the presence of ¼ MIC of LI14.
(§4) –, none of potentiation activity.

MDR E. coli B2 = assay: Checkerboard assay with LI14; type: cell-based, Escherichia coli; settings: for FIC index: antibiotic in combination with LI14, checkerboard 8 × 8, 18 h, ≤0.5 = synergy; for MICa of antibiotic: in the absence of LI14; for MICb of antibiotic: in the presence of ¼ MIC of LI14; for Potentiation: antibiotic potentiation in the presence of ¼ MIC of LI14
Experimental: as §1, §2, §3, §4

[3] = tested on: sensitive E. coli ATCC 25922; assay: Checkerboard assay with LI14; type: cell-based, Escherichia coli; settings: for FIC index: antibiotic in combination with LI14, checkerboard; for MICa of antibiotic: in the absence of LI14; for MICb of antibiotic / Potentiation: in the presence of ¼ MIC of LI14
Experimental: as §1, §2, §3, §4

MRSA T144 [4] = type: cell-based, Staphylococcus aureus; settings: T144
Experimental: MRSA T144 and E. coli B2 in the exponential growth phase were incubated with LI14 peptide supplemented with 10 mM Na^+, K^+, Mg^2+, 10% Dulbecco’s modified Eagle medium (DMEM), and 10% fetal bovine serum (FBS) for 16–18 h. The stability of LI14 was evaluated by the change of its antibacterial activity under different conditions.
LI14 were preincubated for 1 h at various temperatures (40–121 °C), pH (2–12), and proteases (pepsin, trypsin, and papain, final concentration 1 mg/mL). […] Following the incubation with the proteases, the leftover protease was precipitated with acetonitrile and removed by centrifugation at 3000 × g, followed by a MIC test.
Supplementary Table 4 Thermal, pH, salts and protease stability of AMPs against
MRSA T144 and E. coli B2 (MIC, μg/mL).
Treatment MRSA T144 E. coli B2

[5] = tested on: E. coli B2 (blaNDM-5 + mcr-1); assay: microbe, parasite or virus in culture; type: cell-based, Escherichia coli; parameters: Antibacterial activity of LI14 derivates: unit not given here; settings: E. coli B2; unit not given
Experimental: (§5) An antimicrobial activity study was conducted on all peptides against a panel of laboratory bacteria, including ATCC source and clinical isolates with resistance determinants. According to CLSI2021 guidelines, we tested the minimum inhibitory concentrations (MICs) of peptides using standard broth micro-dilutions. Briefly, bacteria grown to exponential phase were diluted in 1:1000 to MHB, subsequently, equivalent amounts of bacterial suspension (1.5 × 10^6 CFUs/mL) were mixed with different concentrations of peptides in a sterilized 96-well microtiter plate (Corning).

E. coli ATCC 25922 = assay: microbe, parasite or virus in culture; type: cell-based, Escherichia coli; parameters: Antibacterial activity of LI14 derivates: unit not given here; settings: E. coli 25922; unit not given
Experimental: as §5

MRSA T144 [6] = assay: microbe, parasite or virus in culture; type: cell-based, Staphylococcus aureus; parameters: Antibacterial activity of LI14 derivates: unit not given here; settings: MRSA T144; unit not given
Experimental: as §5

S. aureus ATCC 29213 = assay: microbe, parasite or virus in culture; type: cell-based, Staphylococcus aureus; parameters: Antibacterial activity of LI14 derivates: unit not given here; settings: S. aureus 29213; unit not given
Experimental: as §5

| Compound | Antibacterial activity of LI14 derivates [5] | Antibacterial activity of LI14 derivates (E. coli ATCC 25922) | Antibacterial activity of LI14 derivates (MRSA T144 [6]) | Antibacterial activity of LI14 derivates (S. aureus ATCC 29213) | also measured |
| --- | --- | --- | --- | --- | --- |
| CC1(C)S[C@@H]2[C@H](NC(=O)[C@H](N)c3ccccc3)C(=O)N2[C@H]1C(=O)O [Ampicillin] |  |  |  |  | Bacterial load in thigh (MRSA T144 [1]; animal 1): 7.62 Log10CFUs/thigh; Bacterial load in thigh (MRSA T144 [1]; animal 2): 7.65 Log10CFUs/thigh; Bacterial load in thigh (MRSA T144 [1]; animal 3): 8.00 Log10CFUs/thigh; Bacterial load in thigh (MRSA T144 [1]; animal 4): 8.03 Log10CFUs/thigh; Bacterial load in thigh (MRSA T144 [1]; animal 5): 7.34 Log10CFUs/thigh; Bacterial load in thigh (MRSA T144 [1]; animal 6): 7.15 Log10CFUs/thigh; FIC index (MRSA T144 [2]): 0.078; MICa of antibiotic (MRSA T144 [2]): 64 µg/mL; MICb of antibiotic (MRSA T144 [2]): 1 µg/mL; Potentiation (MRSA T144 [2]): 64 fold; FIC index (MDR E. coli B2): 2; MICa of antibiotic (MDR E. coli B2): > 128 µg/mL; MICb of antibiotic (MDR E. coli B2): > 128 µg/mL |
| C[C@H]1c2cccc(O)c2C(=O)C2=C(O)[C@]3(O)C(=O)C(C(N)=O)=C(O)[C@@H](N(C)C)[C@@H]3[C@@H](O)[C@@H]21 [Doxycycline] |  |  |  |  | FIC index (MRSA T144 [2]): 0.188; MICa of antibiotic (MRSA T144 [2]): 16 µg/mL; MICb of antibiotic (MRSA T144 [2]): 1 µg/mL; Potentiation (MRSA T144 [2]): 16 fold; FIC index [3]: 0.25; MICa of antibiotic [3]: 0.5 µg/mL; MICb of antibiotic [3]: 0.063 µg/mL; Potentiation [3]: 8 fold; FIC index (MDR E. coli B2): 0.25; Potentiation (MDR E. coli B2): 8 fold; MICa of antibiotic (MDR E. coli B2): 32 µg/mL; MICb of antibiotic (MDR E. coli B2): 4 µg/mL |
| CC[C@H](C)[C@H](NC(=O)[C@H](CCCNC(=N)N)NC(=O)[C@@H]1CSSC[C@H](NC(=O)[C@H](CC(C)C)NC(=O)[C@H](CCCCN)NC(=O)[C@H](CCCCN)NC(=O)[C@@H](N)CC(C)C)C(=O)N[C@@H](CCCNC(=N)N)C(=O)N[C@@H]([C@@H](C)CC)C(=O)N[C@@H](CC(C)C)C(=O)N[C@@H](CCCCN)C(=O)N[C@@H](CCCCN)C(=O)N[C@@H](CC(C)C)C(=O)N1)C(N)=O [LI14 (S-S)] (H-LKKLCRILKKLCRI-NH2; disulfide 5-12 (inferred)) | 4 | 8 | 4 | 4 | MIC (MRSA T144 [4]): 4 µg/mL (≈ 2.32 µM) |
| CN[C@H](CC(C)C)C(=O)N[C@H]1C(=O)N[C@@H](CC(N)=O)C(=O)N[C@H]2C(=O)N[C@H]3C(=O)N[C@H](C(=O)N[C@H](C(=O)O)c4cc(O)cc(O)c4-c4cc3ccc4O)[C@H](O)c3ccc(c(Cl)c3)Oc3cc2cc(c3O[C@@H]2O[C@H](CO)[C@@H](O)[C@H](O)[C@H]2O[C@H]2C[C@](C)(N)[C@H](O)[C@H](C)O2)Oc2ccc(cc2Cl)[C@H]1O [Vancomycin] |  |  |  |  | FIC index (MRSA T144 [2]): 2.0; MICa of antibiotic (MRSA T144 [2]): 0.5 µg/mL; MICb of antibiotic (MRSA T144 [2]): 0.5 µg/mL; FIC index [3]: 0.375; MICa of antibiotic [3]: 64 µg/mL; MICb of antibiotic [3]: 8 µg/mL; Potentiation [3]: 8 fold; FIC index (MDR E. coli B2): 0.078; Potentiation (MDR E. coli B2): 64 fold; MICa of antibiotic (MDR E. coli B2): 128 µg/mL; MICb of antibiotic (MDR E. coli B2): 2 µg/mL |
| AKKLCRILKKLCRI-NH2 [LI14-A1, Ala substitute of LI14, position 1] | 4 | 16 | 64 | 16 |  |
| LAKLCRILKKLCRI-NH2 [LI14-A2, Ala substitute of LI14, position 2] | 4 | 8 | 16 | 8 |  |
| LKALCRILKKLCRI-NH2 [LI14-A3, Ala substitute of LI14, position 3] | 8 | 16 | 8 | 8-16 |  |
| LKKACRILKKLCRI-NH2 [LI14-A4, Ala substitute of LI14, position 4] | 8 | 16-32 | 64 | 64 |  |
| LKKLARILKKLCRI-NH2 [LI14-A5] | 4 | 4 | 16 | 16 |  |
| LKKLCAILKKLCRI-NH2 [LI14-A6, Ala substitute of LI14, Arg at position 6] | 32 | 128 | > 128 | > 128 |  |
| LKKLCRALKKLCRI-NH2 [LI14-A7, Ala substitute of LI14, position 7] | 16 | 32 | 64 | 64 |  |
| LKKLCRIAKKLCRI-NH2 [LI14-A8, Ala substitute of LI14, position 8] | 8 | 16 | 64 | 128 |  |
| LKKLCRILAKLCRI-NH2 [LI14-A9, Ala substitute of LI14, position 9] | 4 | 8-16 | 16 | 16 |  |
| LKKLCRILKALCRI-NH2 [LI14-A10, Ala substitute of LI14, position 10] | 8 | 16-32 | 16 | 16-32 |  |
| LKKLCRILKKACRI-NH2 [LI14-A11, Ala substitute of LI14, position 11] | 8 | 16 | 64 | 64 |  |
| LKKLCRILKKLARI-NH2 [LI14-A12] | 4 | 2 | 16 | 8 |  |
| LKKLCRILKKLCAI-NH2 [LI14-A13, Ala substitute of LI14, position 13] | 4 | 8 | 16 | 16 |  |
| LKKLCRILKKLCRA-NH2 [LI14-A14, Ala substitute of LI14, position 14] | 4 | 16 | 32 | 16 |  |
